In BindingDB's records for doi:10.1016/j.ejmech.2020.112858 (University of Pisa, 2020):

Key:
[1] = Competitive antagonist activity at human CB2R expressed in CHO cell membranes assessed as rightward shift of N-cycloheptyl-1,2-dihydro-5-bromo-1-(4-fluoro benzyl)-6-methyl-2-oxo-pyridine-3-carboxamide-induced GTPgammaS binding by measuring N-cycloheptyl-1,2-dihydro-5-bromo-1-(4-fluoro benzyl)-6-methyl-2-oxo-pyridine-3-carboxamide EC50 at 1000
[2] = Competitive antagonist activity at human CB2R expressed in CHO cell membranes assessed as rightward shift of N-cycloheptyl-1,2-dihydro-5-bromo-1-(4-fluoro benzyl)-6-methyl-2-oxo-pyridine-3-carboxamide-induced GTPgammaS binding by measuring N-cycloheptyl-1,2-dihydro-5-bromo-1-(4-fluoro benzyl)-6-methyl-2-oxo-pyridine-3-carboxamide EC50 at 100
[3] = Non-competitive antagonist activity at human CB2R expressed in CHO cell membranes assessed as N-cycloheptyl-1,2-dihydro-1-(4-fluorobenzyl)-6-methyl-2-oxo-5-phenyl-pyridine-3-carboxamide EC50 at 300 nM preincubated with compound for 30 mins followed by GTPgammaS addition and measured after 90 mins by [35S]GTPgammaS assay (Rvb = 19.4 nM)
[4] = Non-competitive antagonist activity at human CB2R expressed in CHO cell membranes assessed as N-cycloheptyl-1,2-dihydro-1-(4-fluorobenzyl)-6-methyl-2-oxo-5-phenyl-pyridine-3-carboxamide EC50 at 1000 nM preincubated with compound for 30 mins followed by GTPgammaS addition and measured after 90 mins by [35S]GTPgammaS assay (Rvb = 19.4 nM)
[5] = Competitive antagonist activity at human CB2R expressed in CHO cell membranes assessed as rightward shift of N-cycloheptyl-1,2-dihydro-5-bromo-1-(4-fluoro benzyl)-6-methyl-2-oxo-pyridine-3-carboxamide-induced GTPgammaS binding by measuring N-cycloheptyl-1,2-dihydro-5-bromo-1-(4-fluoro benzyl)-6-methyl-2-oxo-pyridine-3-carboxamide EC50 at 300
[6] = Non-competitive antagonist activity at human CB2R expressed in CHO cell membranes assessed as N-cycloheptyl-1,2-dihydro-1-(4-fluorobenzyl)-6-methyl-2-oxo-5-phenyl-pyridine-3-carboxamide EC50 at 100 nM preincubated with compound for 30 mins followed by GTPgammaS addition and measured after 90 mins by [35S]GTPgammaS assay (Rvb = 19.4 nM)

Which results are given for `COc1ccc(-c2cc(C(=O)NC3CCCCCC3)c(=O)n(Cc3ccc(F)cc3)c2C)cc1`?
EC50 [1]: 0.711 µM; EC50 [2]: 0.081 µM; EC50 [3]: 0.062 µM; EC50 [4]: 0.103 µM; EC50 [5]: 0.192 µM; EC50 [6]: 0.102 µM
